Experimental data as given in US6040307A, “Methods ad compositions of (-) ketoconazole for treating fungal yeast and dermatophyte infections” (priority 1999, dated 2000).
“Also recorded” adds a separate entry of the source.

How the values were obtained:
[1] = in vivo, po; cited from earlier work
[2] = test system: microsporum canis, trichophyton mentagrophytes, candida tropicalis, candida albicans, and other fungi and bacteria; settings: cited from earlier work
patients = settings: human, in vivo; cited from earlier work
[3] = test system: isolated guinea pig hearts; experiment: QT duration and action potential duration in isolated guinea pig hearts, perfused with oxygenated Tyrode's solution
Method: The hearts were perfused with an oxygenated Tyrode's solution, containing 0.0; 1.0; 5.0 or 10.0 μM of ketoconazole. QT duration and action potential duration (APD) were measured from cardiac electrodes. APD was measured at 50% (APD-50) and 90% (APD-90). In the table, "N" is the number of hearts, and QT and APD are measured in milliseconds.

synthesis of ergosterol = settings: fungal cell membranes; cited from earlier work
liver = settings: cited from earlier work
cardiac repolarization = settings: in vivo; cited from earlier work
delayed rectifier (Ik) = settings: cited from earlier work
[4] = of 75 cases adequately followed up

CC(=O)N1CCN(c2ccc(OCC3COC(Cn4ccnc4)(c4ccc(Cl)cc4Cl)O3)cc2)CC1 (racemic) [Ketoconazole, 1-acetyl-4-[4-[[2-(2,4-dichlorophenyl)-2-(1H-imidazole-1-ylmethyl)-1,3-dioxolan-4-yl]methoxy]phenyl]piperazine]
major route of excretion [1]: via the bile into the intestinal tract
metabolism [1]: eventually metabolized to several inactive metabolites
serum concentration [1]: a linear increase in serum concentration
effect of 10% inactivated bovine serum on antifungal activity ([2]; Sabouraud broth containing 10% inactivated bovine serum): enhanced
inhibition of growth ([2]; Sabouraud broth, 14 days of incubation): Complete or marked inhibition of growth
gastrointestinal side effects, occurrence in patients (patients): 5-10 % of patients
torsades de pointes (patients): torsades de pointes, has been reported
APD-50 ([3]; 1.0 μM, N = 2 hearts, baseline 145 ± 5): 149 ± 1 milliseconds
APD-90 ([3]; 1.0 μM, N = 2 hearts, baseline 185 ± 10): 195 ± 5 milliseconds
QT ([3]; 1.0 μM, N = 2 hearts, baseline 230 ± 10): 232 ± 9 milliseconds
APD-50 ([3]; 5.0 μM, N = 3 hearts, baseline 147 ± 5): 163 ± 5 milliseconds
APD-90 ([3]; 5.0 μM, N = 3 hearts, baseline 187 ± 9): 221 ± 8 milliseconds
QT ([3]; 5.0 μM, N = 3 hearts, baseline 233 ± 9): 261 ± 8 milliseconds
APD-50 ([3]; 10.0 μM, N = 3 hearts, baseline 140 ± 8): 173 ± 2 milliseconds
APD-90 ([3]; 10.0 μM, N = 3 hearts, baseline 177 ± 14): 233 ± 9 milliseconds
QT duration and action potential duration (in words) ([3]; isolated guinea pig hearts): increases QT duration and action potential duration
arrhythmogenic effect (in words) ([3]; isolated guinea pig hearts, listed as racemic ketoconazole): may be associated with an increased risk of cardiac arrhythmia; also recorded: indicative of a potential arrhythmogenic effect
synthesis of ergosterol (synthesis of ergosterol): impairs the synthesis of ergosterol
reports of hepatotoxicity (liver; 1981-1984, United Kingdom): 82 reports
time for liver function tests to return to normal after treatment was stopped (average) (liver; average): 3.1 months
hepatocellular injury suggested by serum liver function tests (liver; in vivo): 10 of the 16
deaths among the cases probably related to treatment (liver; of 16 cases): 3 deaths
cases possibly related to treatment (liver; [4]): 48 cases
cases probably related to treatment (liver; [4]): 16 cases
deaths among the reports of hepatotoxicity (liver; of 82 reports): 5 deaths

CCN(CC)CCNC(=O)c1ccc(NC(C)=O)cc1 [acetyl-procainamide]
prolongation of cardiac repolarization (cardiac repolarization): cause a prolongation of cardiac repolarization
torsades de pointes (side effect) (cardiac repolarization): well known side effect
block of cellular potassium channel delayed rectifier (Ik) (delayed rectifier (Ik)): block a cellular potassium channel called the delayed rectifier (Ik)

C=C[C@H]1C[N@@]2CC[C@H]1C[C@@H]2[C@@H](O)c1ccnc2ccc(OC)cc12 [quinidine]
prolongation of cardiac repolarization (cardiac repolarization): cause a prolongation of cardiac repolarization
torsades de pointes (side effect) (cardiac repolarization): well known side effect
block of cellular potassium channel delayed rectifier (Ik) (delayed rectifier (Ik)): block a cellular potassium channel called the delayed rectifier (Ik)

CC(C)NCC(O)c1ccc(NS(C)(=O)=O)cc1 (stereo not shown) [sotalol]
prolongation of cardiac repolarization (cardiac repolarization): cause a prolongation of cardiac repolarization
torsades de pointes (side effect) (cardiac repolarization): well known side effect
block of cellular potassium channel delayed rectifier (Ik) (delayed rectifier (Ik)): block a cellular potassium channel called the delayed rectifier (Ik)
